From patent publication US6737383B1, “Herbicidal oxadiazolidines” (priority 1999, dated 2004)

How the values were obtained:
cocklebur = experiment: Test B pre/postemergence cocklebur; format: in vivo, Xanthium strumarium
Outline: (§1)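 Herbicidal effect was estimated by eye on a ten-point control scale after plants spent twelve to sixteen days in a greenhouse following soil or foliar treatment. Foliar sprays targeted plants at one to four leaves; all doses were formulated in a non-phytotoxic solvent with surfactant.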

wild oat = experiment: Test B pre/postemergence wild oat; format: in vivo, Avena fatua
Outline: as §1

wheat = experiment: Test B pre/postemergence wheat; format: in vivo, Triticum aestivum
Outline: as §1

purple nutsedge = experiment: Test B pre/postemergence purple nutsedge; format: in vivo, Cyperus rotundus
Outline: as §1

surinam grass = experiment: Test B pre/postemergence surinam grass; format: in vivo, Brachiaria decumbens
Outline: as §1

blackgrass = experiment: Test B pre/postemergence blackgrass; format: in vivo, Alopecurus myosuroides; details: for Plant response rating, Blackgrass: scale of 0 to 10 where 0 is no effect and 10 is complete control
Outline: as §1

duck salad = experiment: Test B flood test duck salad; format: in vivo, Heteranthera limosa
Outline: (§2)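 Each value is a visual injury score relative to controls, with 10 meaning complete control and 0 no effect. Evaluation took place twelve to sixteen days after the 2-leaf-stage plants were treated and kept in the greenhouse.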

bamyardgrass = experiment: Test B flood test barnyardgrass; format: in vivo, Echinochloa crus-galli
Outline: as §2

soybean = experiment: Test B pre/postemergence soybean; format: in vivo, Glycine max
Outline: as §1

sugar beet = experiment: Test B pre/postemergence sugar beet; format: in vivo, Beta vulgaris
Outline: as §1

smallflower flatsedge = experiment: Test B flood test smallflower flatsedge; format: in vivo, Cyperus difformis
Outline: as §2

bedstraw = experiment: Test B pre/postemergence bedstraw; format: in vivo, Galium aparine; details: Preemergence; for Plant response rating, Bedstraw: scale of 0 to 10 where 0 is no effect and 10 is complete control; for Bedstraw plant response rating: scale 0 to 10, 0 is no effect, 10 is complete control
Outline: as §1

rice = experiment: Test B flood test rice; format: in vivo, Oryza sativa
Outline: as §2

corn = experiment: Test B pre/postemergence corn; format: in vivo, Zea mays
Outline: as §1

velvetleaf = experiment: Test B pre/postemergence velvetleaf; format: in vivo, Abutilon theophrasti
Outline: as §1

crabgrass = experiment: Test B pre/postemergence crabgrass; format: in vivo, Digitaria sanguinalis
Outline: as §1

[1] = Postemergence, Rate 250 g/ha, scale 0 to 10
[2] = Postemergence, Rate 500 g/ha, scale of 0 to 10 where 0 is no effect and 10 is complete control
[3] = Preemergence, Rate 62 g/ha, scale of 0 to 10 where 0 is no effect and 10 is complete control
[4] = Preemergence, Rate 125 g/ha, scale of 0 to 10 where 0 is no effect and 10 is complete control
[5] = Preemergence, Rate 250 g/ha, scale 0 to 10, 0 is no effect, 10 is complete control
[6] = Preemergence, Rate 500 g/ha, scale 0 to 10, 0 is no effect, 10 is complete control
[7] = Rate 62 g/ha, Postemergence, scale 0 to 10 (0 no effect, 10 complete control)
[8] = Rate 125 g/ha, Postemergence, scale 0 to 10, 0 is no effect, 10 is complete control
[9] = Rate 62 g/ha, flood test species, Pre-emergence, visual evaluation after twelve to sixteen days
[10] = Rate 125 g/ha, under heading Pre-emergence, flood test species, visual evaluation after twelve to sixteen days
[11] = Rate 250 g/ha, Pre-emergence (flood test species), scale 0 to 10, 0 is no effect, 10 is complete control
[12] = Rate 500 g/ha, Pre-emergence, flood test species, scale 0 to 10 (0 no effect, 10 complete control)

## CCc1nc(C)c(C(C)n2c(=O)on(C(=O)N(c3ccc(F)cc3)C(C)C)c2=O)s1 (stereo not shown) [Compound 449]
cocklebur; [1]
  Cocklebur plant response rating: 2
cocklebur; [2]
  Cocklebur plant response rating: 3
cocklebur; [3]
  Plant response rating, Cocklebur: 0
cocklebur; [4]
  Plant response rating, Cocklebur: 0
cocklebur; [5]
  Cocklebur plant response rating: 0
cocklebur; [6]
  Cocklebur plant response rating: 0
cocklebur; [7]
  Cocklebur plant response rating: 0
cocklebur; [8]
  Cocklebur plant response rating: 0
Wild oat; [1]
  Wild oats plant response rating: 0
Wild oat; [2]
  Wild oats plant response rating: 4
Wild oat; [3]
  Plant response rating, Wild oats: 0
Wild oat; [4]
  Plant response rating, Wild oats: 0
Wild oat; [5]
  Wild oats plant response rating: 0
Wild oat; [6]
  Wild oats plant response rating: 0
Wild oat; [7]
  Wild oats plant response rating: 0
Wild oat; [8]
  Wild oats plant response rating: 0
wheat; [1]
  Wheat plant response rating: 0
wheat; [2]
  Wheat plant response rating: 3
wheat; [3]
  Plant response rating, Wheat: 0
wheat; [4]
  Plant response rating, Wheat: 0
wheat; [5]
  Wheat plant response rating: 0
wheat; [6]
  Wheat plant response rating: 0
wheat; [7]
  Wheat plant response rating: 0
wheat; [8]
  Wheat plant response rating: 0
Purple nutsedge; [1]
  Nutsedge plant response rating: 0
Purple nutsedge; [2]
  Nutsedge plant response rating: 0
Purple nutsedge; [3]
  Plant response rating, Nutsedge: 0
Purple nutsedge; [4]
  Plant response rating, Nutsedge: 0
Purple nutsedge; [5]
  Nutsedge plant response rating: 0
Purple nutsedge; [6]
  Nutsedge plant response rating: 0
Purple nutsedge; [7]
  Nutsedge plant response rating: 0
Purple nutsedge; [8]
  Nutsedge plant response rating: 0
Surinam grass; Postemergence, Rate 250 g/ha, scale 0 to 10, 0 no effect, 10 complete control
  B. signalgrass plant response rating: 0
Surinam grass; [2]
  B. signalgrass plant response rating: 4
Surinam grass; [3]
  Plant response rating, B. signalgrass: 0
Surinam grass; [4]
  Plant response rating, B. signalgrass: 0
Surinam grass; [5]
  B. signalgrass plant response rating: 0
Surinam grass; [6]
  B. signalgrass plant response rating: 0
Surinam grass; [7]
  B. signalgrass plant response rating: 0
Surinam grass; [8]
  B. signalgrass plant response rating: 0
blackgrass; [1]
  Blackgrass plant response rating: 0
blackgrass; Preemergence, Rate 62 g/ha
  Plant response rating, Blackgrass: 0
blackgrass; Preemergence, Rate 125 g/ha
  Plant response rating, Blackgrass: 0
blackgrass; [5]
  Blackgrass plant response rating: 0
blackgrass; [6]
  Blackgrass plant response rating: 3
blackgrass; [7]
  Blackgrass plant response rating: 0
blackgrass; [8]
  Blackgrass plant response rating: 0
Duck salad; [9]
  Plant response rating, Ducksalad (0 to 10 scale, 0 is no effect, 10 is complete control): 0
Duck salad; [10]
  Ducksalad plant response rating (0 to 10 scale, 0 is no effect, 10 is complete control): 0
Duck salad; [11]
  Ducksalad plant response rating: 0
Duck salad; [12]
  Ducksalad plant response rating: 0
bamyardgrass; [9]
  Plant response rating, Barnyardgrass (0 to 10 scale, 0 is no effect, 10 is complete control): 0
bamyardgrass; [10]
  Barnyardgrass plant response rating (0 to 10 scale, 0 is no effect, 10 is complete control): 0
bamyardgrass; [11]
  Barnyardgrass plant response rating: 0
bamyardgrass; [12]
  Barnyardgrass plant response rating: 0
soybean; [1]
  Soybean plant response rating: 2
soybean; [2]
  Soybean plant response rating: 2
soybean; [3]
  Plant response rating, Soybean: 0
soybean; [4]
  Plant response rating, Soybean: 0
soybean; [5]
  Soybean plant response rating: 0
soybean; [6]
  Soybean plant response rating: 2
soybean; [7]
  Soybean plant response rating: 0
soybean; [8]
  Soybean plant response rating: 1
Sugar beet; [1]
  Sugarbeets plant response rating: 0
Sugar beet; [2]
  Sugarbeets plant response rating: 3
Sugar beet; [3]
  Plant response rating, Sugarbeets: 0
Sugar beet; [4]
  Plant response rating, Sugarbeets: 0
Sugar beet; [5]
  Sugarbeets plant response rating: 0
Sugar beet; [6]
  Sugarbeets plant response rating: 0
Sugar beet; [7]
  Sugarbeets plant response rating: 0
Sugar beet; [8]
  Sugarbeets plant response rating: 0
Smallflower flatsedge; [9]
  Plant response rating, S. Flatsedge (0 to 10 scale, 0 is no effect, 10 is complete control): 0
Smallflower flatsedge; [10]
  S. Flatsedge plant response rating (0 to 10 scale, 0 is no effect, 10 is complete control): 0
Smallflower flatsedge; [11]
  S. Flatsedge plant response rating: 0
Smallflower flatsedge; [12]
  S. Flatsedge plant response rating: 0
bedstraw; Rate 62 g/ha
  Plant response rating, Bedstraw: 0
bedstraw; Rate 125 g/ha
  Plant response rating, Bedstraw: 0
bedstraw; Rate 250 g/ha
  Bedstraw plant response rating: 0
bedstraw; Rate 500 g/ha
  Bedstraw plant response rating: 4
rice; [9]
  Plant response rating, Rice (0 to 10 scale, 0 is no effect, 10 is complete control): 0
rice; [10]
  Rice plant response rating (0 to 10 scale, 0 is no effect, 10 is complete control): 0
rice; [11]
  Rice plant response rating: 0
rice; [12]
  Rice plant response rating: 0
corn; [1]
  Corn plant response rating: 0
corn; [2]
  Corn plant response rating: 0
corn; [3]
  Plant response rating, Corn: 0
corn; [4]
  Plant response rating, Corn: 0
corn; [5]
  Corn plant response rating: 0
corn; [6]
  Corn plant response rating: 0
corn; [7]
  Corn plant response rating: 0
corn; [8]
  Corn plant response rating: 0
velvetleaf; [1]
  Velvetleaf plant response rating: 0
velvetleaf; [2]
  Velvetleaf plant response rating: 0
velvetleaf; [3]
  Plant response rating, Velvetleaf: 0
velvetleaf; [4]
  Plant response rating, Velvetleaf: 0
velvetleaf; [5]
  Velvetleaf plant response rating: 0
velvetleaf; [6]
  Velvetleaf plant response rating: 0
velvetleaf; [7]
  Velvetleaf plant response rating: 0
velvetleaf; [8]
  Velvetleaf plant response rating: 0
crabgrass; [1]
  Crabgrass plant response rating: 2
crabgrass; [2]
  Crabgrass plant response rating: 2
crabgrass; [3]
  Plant response rating, Crabgrass: 0
crabgrass; [4]
  Plant response rating, Crabgrass: 3
crabgrass; [5]
  Crabgrass plant response rating: 9
crabgrass; [6]
  Crabgrass plant response rating: 9
crabgrass; [7]
  Crabgrass plant response rating: 0
